Measured values taken from patent US12427212B2, “Nectin-4 binding miniproteins, conjugates and uses thereof” (Aktis Oncology, Inc., priority 2023, dated 2025).
“Also recorded” adds a separate entry of the source. Bridges are numbered along the chain shown (N, C = ends). Primed or numbered codes have the meaning given here. [ ]: non-standard residue; d: D form. The star is where a group is joined. DOTA = O=C(O)CN1CCN(CC(=O)O)CCN(CC(=O)*)CCN(CC(=O)O)CC1; Lys(Me3) = C[N+](C)(C)CCCC[C@H](N)C(=O)O; Cit = NC(=O)NCCC[C@H](N)C(=O)O; PEG4 = NCCOCCOCCOCCOCCC(=O)O; PEG4′ = not defined here

Legend:
Nectin-4 [1] = molecular target: T1, Nectin-4 (Homo sapiens, UniProt Q96NY8); assay: Flow cytometry binding to Nectin-4-expressing (HT-1376-P) and knockout (HT-1376-KO) cells; type: cell-based; conditions: biotinylated miniprotein
T1 sequence (Q96NY8 32-510): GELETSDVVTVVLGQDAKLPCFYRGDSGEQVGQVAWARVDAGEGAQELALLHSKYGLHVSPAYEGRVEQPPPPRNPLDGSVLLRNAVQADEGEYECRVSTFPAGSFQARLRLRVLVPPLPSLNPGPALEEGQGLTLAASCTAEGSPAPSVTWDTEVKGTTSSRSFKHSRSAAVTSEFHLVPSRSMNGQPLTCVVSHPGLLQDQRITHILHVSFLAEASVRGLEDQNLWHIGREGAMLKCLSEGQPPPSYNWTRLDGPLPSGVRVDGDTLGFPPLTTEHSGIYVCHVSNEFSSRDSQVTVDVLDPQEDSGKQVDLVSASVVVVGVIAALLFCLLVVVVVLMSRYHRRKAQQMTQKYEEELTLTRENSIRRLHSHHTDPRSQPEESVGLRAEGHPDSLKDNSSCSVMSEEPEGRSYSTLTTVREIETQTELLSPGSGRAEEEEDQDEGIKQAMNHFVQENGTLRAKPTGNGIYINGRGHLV
Experimental: Fluorescent imaging for Nectin-4 binding was conducted using assays as described in Example 3. Briefly. Nectin-4 knockout HT-1376 cells were generated via CRISPR/Cas9 mediated gene deletion followed by single cell cloning. […] Flow cytometry was performed to measure on-target binding to cell surface Nectin-4.

Nectin-4 [2] = molecular target: T1, Nectin-4; assay: DELFIA competitive binding assay (Ki) against Eu-labeled C307 on HT-1376 cells; conditions: in the presence of europium-labeled C307
Experimental: A competition binding assay was utilized to determine the Ki for miniproteins bound to Nectin-4 expressed on the surface of cancer cells. […] Miniprotein incubations occurred for 90 min to reach binding equilibrium. […] After miniprotein incubations, the wells were washed to remove unbound ligand and treated according to manufacturer instructions for a DELFIA® (dissociation-enhanced lanthanide fluorescent immunoassay, Revvity Health Sciences). In brief, washed wells were incubated with 15 μL of 2 M HCl for 2 h at 37° C., after which 17 μL of 2 M NaOH and 30 μL of DELFIA® enhancement solution were added to each well and incubated for an additional 30 min. The remaining Eu reacted with the DELFIA® enhancer solution to generate fluorescence measured on the Envision instrument. Relative fluorescence units (RFUs) were measured as a function of test article concentration in order to calculate an IC50.
A whole cell binding assay was used to estimate the equilibrium binding affinity (KD) or binding inhibition constant (Ki) of miniprotein ligands to cells expressing a target of interest. Cells were dispensed into a 384-well plate and incubated at 37° C., in 5% CO2 overnight. The next day cells were gently washed once in assay buffer prior to addition of europium chelated ligand. […] For Ki determination, a single concentration (KD equivalent concentration) of europium-chelate miniprotein was added to each well followed immediately by the addition of unconjugated competing ligand over 12 different concentrations ranging from 100 times below and above expected Ki values as before. The plate was incubated for 1.5 h at room temperature to reach binding equilibrium. Cells were then washed three times at room temperature with 1×PBS followed by the addition of 2 M HCl and incubated for two h at 37° C. Following this step, 2 M NaOH and fluorescent inducer solution were added to each well and incubated for 30 minutes at room temperature according to the manufacturer's protocol (Perkin-ELMER DELFIA assay). Plates were read on an Envision plate reader and a curve-fitting model was applied to estimate KD and Ki values using GraphPad Prism software.
Engineered Nectin-4 miniproteins with further modified lysine residues (C298-C304; as described in Example 4B) were evaluated for their ability to bind to Nectin-4.

[3] = tested on: un-transfected HEK293 cells; assay: Background binding to un-transfected HEK293 cells (cell microarray suitability); type: cell-based, human; conditions: biotin-labeled molecules
Experimental: To evaluate potential off-target binding, six biotin-labeled molecules were tested in a cell microarray platform having 6,416 different human proteins spanning diverse functions and subcellular locations.

HT-1376 cells = assay: Internalization assay of indium-111 radiolabeled conjugate, HT-1376; type: cell-based, human; conditions: 37° C. or 4° C., 1 h
Experimental: (§1) Internalization was assessed for indium-111 radiolabeled C215 in HT-1376 and MCF7 cells. Cells were incubated in the presence of radioligand or radioligand plus 1000 times excess unlabeled compound (C215) at 37° C., or 4° C. for 1 h. At the end of incubation cells were washed four times with PBS and membrane bound radioligand was removed by three 0.5% trypsin washes. Cell suspensions were washed three times by method of centrifugation and removal of supernatant. Internalized radioactivity was measured by gamma counting cell pellets and cell number was determined by counting cells on an automatic cell counter. […] C215, in HT-1376 (FIG. 6A) and MCF7 cell lines (FIG. 6B).

[4] = tested on: HT-1376 urothelial cancer cells; assay: In vitro cell cytotoxicity assay of 225Ac-radioconjugates (CellTiter-Glo); type: cell-based, human; conditions: compound radiolabeled with 225Ac, 24 h treatment, 4-5 day regrowth, HT-1376 cells
Experimental: Cytotoxicity to ^225Ac-radioconjugates was assessed in HT-1376 urothelial cancer cells. Cells were seeded in 96-well plates at densities of 250 to 1000 cells per well two days prior to treatment. On the day of treatment ^225Ac-radioconjugates were diluted in culture medium to concentrations ranging from 0,0001 to 100 μCi/mL and treatment solutions were incubated with cells for 24 h. At the end of the treatment period, the treatment solution was removed, and fresh culture medium was replenished for the regrowth period of the assay that lasted 4-5 day's. At the end of the regrowth period the culture medium was removed and viability was assessed by CellTiter-Glo (Promega, Waltham MA) luminescent assay and the plates were read on a Perkin Elmer Enspire multimode plate reader. Data were normalized to treatment controls and plotted as non-linear sigmoidal dose response curves to determine the effective concentration for 50% reduction in cell viability.

MCF7 cells = assay: Internalization assay of indium-111 radiolabeled conjugate, MCF7; type: cell-based, human; conditions: 37° C. or 4° C., 1 h
Experimental: as §1

[5] = Thermal stability assay, 75° C., HPLC; type: physicochemical; conditions: 1 mg/mL, 0.9% saline solution
Experimental: The thermal stability of an exemplary compound, C215, was analyzed at a concentration of 1 mg/mL at 75° C., in 0.9% saline solution. A heating plate was set to 75° C. and the sample was heated for a period of one h. The vial was shaken prior to collecting 10 μL aliquots at 5, 10, 15, 30, and 60 minute time intervals. The % parent remaining was analyzed by HPLC using the following system and method: Analytical Agilent 1100 HPLC system using a 4.6×250 mm, 300 Angstrom. BEH300, 5 μm, Xbridge C18 column at 1.0 mL/min. The solvent system consisted of A=Water+0.1% TFA, B=Acetonitrile+0.1% TFA. The gradient consisted of 5% to 70% B over 15 minutes, then the column was washed and equilibrated to initial conditions.

[6] = Biodistribution of radiolabeled miniprotein conjugates by SPECT/CT, HT-1376-OE xenograft; conditions: female, mouse, in vivo, iv, Kidneys; for tissue uptake at 4 h: 4 h (% ID/g) Average; for tissue uptake at 22 h: 22 h (% ID/g) Average
Experimental: 6-8 week old female mice were engrafted through subcutaneous injection with cultured 3.0×10^6 HT-1376-OE cells (1:1—Cells:Matrigel). HT-1376-OE is a model cell line that highly expresses Nectin-4. Fourteen (14) days later, the mice were each dosed with a radiolabeled miniprotein, for example at a dose of ˜350 μCi/3.5 μg miniprotein. SPECT and/or CT imaging of the mice was done at timepoints between 15 min to 24 h after the administration of the injected dose, such as 4 h and 22 h (static scanning). Initial SPECT and/or CT rapid dynamic scanning was done at time points between 15 min and 75 min after the administration of the injected dose. For each miniprotein tested, a group of three mice were used, as summarized below in TABLE 16A.

[7] = In vitro metabolic stability in serum/plasma (percent parent remaining, LC-MS); type: in vitro ADME; conditions: mouse
Experimental: Exemplary miniproteins were spiked into biological matrices at initial concentration between 1-2 μM. Tested matrices were varied by species (mouse, rat, human) and type (plasma, serum, and kidney brush border membrane (kBBM) preparations tested each from 0.625-100 μg/mL protein content). Tested conditions were incubated with miniproteins at 37° C. for 4 h. At collection points of 0, 15, 30, 60, 120, 240 minutes, 50 μL of each condition were quenched by organic solvent (methanol or acetonitrile) or the addition of 4% phosphoric acid solution followed by solid-phase extraction. Fractions of each quenched timepoint were subsequently assayed for parent miniproteins concentration by high resolution LC-MS. Percent-parent-remaining-time plots were constructed from the ratio of each given time collection to the time-zero parent miniprotein. Percent-parent-remaining in mouse serum and plasma for exemplary miniproteins are recorded in TABLE 11.

[8] = In vivo biodistribution of 111In-labeled miniproteins by SPECT/CT, HT-1376 xenograft; design: species or system mouse; conditions: female, athymic nude, mouse, in vivo
Method in brief: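 Mice bearing HT-1376 (Nectin-4-expressing human) xenografts imaged by SPECT/CT after 111In-labeled miniprotein dosing. SPECT reported as activity; per-subject maximum intensity projections scaled in % ID/g at each time point.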

Compound	on-target binding to cell surface Nectin-4, HT-1376-P versus HT-1376-KO cells (Nectin-4 [1])	binding to endogenous Nectin-4 expressed on HT-1376 cells (FIG. 21) (Nectin-4 [2])	Background binding to un-transfected HEK293 cells [3]	internalization of radioconjugate (HT-1376 cells)	EC50 (microcurie/milliliter) for 225Ac radioconjugates [4]	internalization of radioconjugate (MCF7 cells)	thermal stability, % parent remaining [5]	tissue uptake at 4 h [6]	tissue uptake at 22 h [6]	half-life [7]	half-life ([7]; plasma)	tissue uptake at 4 h [8]	tissue uptake at 24 h [8]
CC[C@H](C)[C@@H]1NC(=O)[C@H](Cc2ccc(O)cc2)NC(=O)[C@H](CCC(N)=O)NC(=O)[C@@H]2CSSC[C@@H](C(=O)N[C@@H](CO)C(=O)O)NC(=O)CNC(=O)[C@H](CC(C)C)NC(=O)[C@H](CC(N)=O)NC(=O)[C@H](CC(=O)O)NC(=O)[C@H](CC(C)C)NC(=O)[C@H]([C@@H](C)CC)NC(=O)[C@H](CCC(=O)O)NC(=O)[C@H](CCC(=O)O)NC(=O)[C@H]([C@@H](C)CC)NC(=O)[C@H](CSSC[C@H](NC(=O)CCOCCOCCOCCOCCNC(=O)CCCC[C@@H]3SC[C@@H]4NC(=O)N[C@@H]43)C(=O)N[C@@H](CCC(=O)O)C(=O)N[C@@H](Cc3ccc(O)cc3)C(=O)N[C@@H](CC(=O)O)C(=O)N[C@@H](CCC(=O)O)C(=O)N[C@@H](CCC(=O)O)C(=O)N[C@@H](Cc3ccccc3)C(=O)N[C@@H](Cc3ccccc3)C(=O)N[C@@H]([C@@H](C)O)C(=O)N[C@@H](C)C(=O)N[C@@H](CC(C)C)C(=O)N[C@@H](C)C(=O)N[C@@H](CCCNC(=N)N)C(=O)N[C@@H](CC(C)C)C(=O)N[C@@H](CCCNC(=N)N)C(=O)NCC(=O)NCC(=O)N[C@@H](CC(=O)O)C(=O)N[C@@H]([C@@H](C)CC)C(=O)N2)NC(=O)[C@H](CC(C)C)NC(=O)[C@H](C)NC(=O)[C@@H]2CCCN2C(=O)[C@H](CC(C)C)NC(=O)[C@H](Cc2ccc(O)cc2)NC(=O)[C@H](CCC(N)=O)NC(=O)[C@H](Cc2ccccc2)NC(=O)[C@H](CCCC[N+](C)(C)C)NC(=O)[C@H](C)NC(=O)[C@H](CCC(N)=O)NC1=O [Compound C253]	potent and highly selective Nectin-4 targeting agent; also recorded: selective target binding	high binding affinity	low-background binding										
C215 ({DOTA-PEG4′}-CEYDEEFFTALKRLRGGDICYYIKKKFKKVPKLCIEEILDKLGC-NH2; cysteine pairing not given here) [Compound C215]				successfully internalized into cells	0.086 microcurie/milliliter	successfully internalized into cells	remain stable over 60 min						
{DOTA-PEG4}-CDYDEQFFTALA[Cit]LRGGDICEYIQA[Lys(Me3)]FQYLPGLCIEEILDNLGCS-OH (disulfide 1-34, 20-44 (inferred)) [Compound C260]								11.6 %ID/g	6.92 %ID/g	11.2 h	> 12 h	12.8 %ID/g	7.36 %ID/g
{DOTA-PEG4}-CEYDEEFFTALARLRGGDICQYIQAKFQYLPGQCIEEILDNLGCS-OH (disulfide 1-34, 20-44) [Compound C244]								29.5 %ID/g	17.8 %ID/g	> 12 h	> 12 h	27.7 %ID/g	15.9 %ID/g
